Data reported in the NIST ThermoML archive (doi:10.1016/j.jct.2014.04.016).
Numbers after ± are expanded uncertainties.

Conditions: for electrical conductivity / viscosity / mass density: 101.33 kPa, Liquid; for electrical conductivity: Alternating current cell with electrodes; for viscosity: Concentric cylinders viscometry; for mass density: Vibrating tube method

CCCCCCCCOS(=O)(=O)[O-].CCn1cc[n+](C)c1 [1-ethyl-3-methylimidazolium octyl sulfate]
Conditions	electrical conductivity [S/m]	mass density [kg/m3]	viscosity [mPa·s]
258.1 K	0.002 ± 0.003	–	–
263.1 K	0.003 ± 0.003	–	–
268.1 K	0.005 ± 0.003	–	–
273.1 K	0.008 ± 0.003	1110.8 ± 1.1	4561 ± 290
278.1 K	0.012 ± 0.003	1107.4 ± 1.1	2822 ± 160
283.1 K	0.017 ± 0.003	1103.9 ± 1.1	1815 ± 94
288.1 K	0.025 ± 0.003	1100.5 ± 1.1	1207 ± 57
293.1 K	0.034 ± 0.003	1097.1 ± 1.1	826.7 ± 36
298.1 K	0.046 ± 0.003	1093.7 ± 1.1	581 ± 23
303.1 K	0.06 ± 0.003	1090.2 ± 1.1	421.7 ± 15
308.1 K	0.078 ± 0.003	1086.9 ± 1	311.7 ± 10
313.1 K	0.098 ± 0.003	1083.6 ± 1	233.3 ± 7.1
318.1 K	0.124 ± 0.003	1080.3 ± 1	179.1 ± 5
323.1 K	0.153 ± 0.004	1077.1 ± 1	139.8 ± 3.7
328.1 K	0.193 ± 0.004	1073.9 ± 1	110.9 ± 2.7
333.1 K	0.232 ± 0.005	1070.7 ± 1	89.14 ± 2.1
338.1 K	0.279 ± 0.006	1067.5 ± 1	72.56 ± 1.6
343.1 K	0.329 ± 0.007	1064.4 ± 1	59.81 ± 1.3
348.1 K	0.385 ± 0.008	1061.2 ± 1	49.83 ± 1.1
353.1 K	0.447 ± 0.009	1058.1 ± 1	41.94 ± 0.92
358.1 K	0.514 ± 0.011	1054.9 ± 1	35.63 ± 0.78
363.1 K	0.584 ± 0.012	1051.8 ± 1	30.53 ± 0.66
368.1 K	0.661 ± 0.014	1048.8 ± 1	26.36 ± 0.57
373.1 K	0.731 ± 0.015	1045.7 ± 1	22.92 ± 0.5

Conditions	Normal melting temperature [°C]
Crystal, visual observation	10 ± 4
